Results reported in patent US9247759B2, “Identification of human T2R receptors that respond to bitter compounds that elicit the bitter taste in compositions, and the use thereof in assays to identify compounds that inhibit (block) bitter taste in compositions and use thereof” (SENOMYX, INC., priority 2007, dated 2016).
Read-outs that look alike come from different tables or passages of the source.

Experiments:
hT2R4 = hT2R4 (Homo sapiens (Human), UniProt Q9NYW5); experiment: hT2R panel inhibition, transient HEK293 G16g44, agonist Chloroquine pH6.5 5 mM; type: cell-based; conditions: HEK293, compound at 25 μM
hT2R4, sequence (Q9NYW5 whole entry): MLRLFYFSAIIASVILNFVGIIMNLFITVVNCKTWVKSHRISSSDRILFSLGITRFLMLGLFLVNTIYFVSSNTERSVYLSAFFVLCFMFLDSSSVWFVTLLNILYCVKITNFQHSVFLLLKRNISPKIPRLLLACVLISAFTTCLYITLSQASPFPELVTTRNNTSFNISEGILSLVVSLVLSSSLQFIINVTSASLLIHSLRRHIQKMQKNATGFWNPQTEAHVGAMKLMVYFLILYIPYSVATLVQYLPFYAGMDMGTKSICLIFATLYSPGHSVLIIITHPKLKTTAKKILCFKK
Procedure: (§1) Specifically, in order to evaluate the inhibitory selectivity of the Compound C compound, this compound was tested against 22 human T2Rs which were deorphaned by Senomyx. These receptors and the bitter ligands that activate these human T2Rs are reported in earlier patent applications which are incorporated by reference herein. These 22 human T2Rs are hT2R1, 3, 4, 5, 7, 8, 9, 10, 13, 14, 16, 44, 51, 54, 55, 61, 63, 64, 65, 67, 71 and 75. The amino acid and nucleic acid sequences of all of these T2Rs may be found in these earlier patent applications. These human T2Rs were each individually transiently transfected into HEK293 cells that stably express the promiscuous G protein G16g44 and functional assays were effected using these receptors as disclosed in these same patent applications. […] The ligands were used at EC80 concentration levels. The list of bitter ligands utilized and the tested ligand concentrations are contained in Table 5 of this example.
(§2) Relating to the foregoing, FIG. 5 contains experimental results wherein Compound C was tested with different agonist compounds. The inhibition activity is represented by the reduction of receptor activity in the presence of Compound C. […] These 13 hT2Rs are hT2R3, 7, 10, 14, 16, 44, 51, 55, 61, 63, 64, 65, and 71.

hT2R10 = hT2R10 (Homo sapiens (Human), UniProt Q9NYW0); experiment: hT2R panel inhibition, transient HEK293 G16g44, agonist Strychnine 50 μM; type: cell-based
hT2R10, sequence (Q9NYW0 whole entry): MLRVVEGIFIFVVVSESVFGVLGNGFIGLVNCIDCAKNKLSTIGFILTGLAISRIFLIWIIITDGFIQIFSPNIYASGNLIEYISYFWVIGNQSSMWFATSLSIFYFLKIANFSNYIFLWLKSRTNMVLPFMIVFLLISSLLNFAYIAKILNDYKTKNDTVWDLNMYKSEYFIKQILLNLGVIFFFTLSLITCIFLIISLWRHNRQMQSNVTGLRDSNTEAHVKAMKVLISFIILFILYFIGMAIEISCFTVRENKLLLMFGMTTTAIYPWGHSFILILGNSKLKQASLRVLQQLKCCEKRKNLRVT

hT2R71 = hT2R71 (Homo sapiens (Human), UniProt P59536); experiment: hT2R panel inhibition, transient HEK293 G16g44, agonist Picric Acid 10 μM; type: cell-based; conditions: HEK293, compound at 25 μM
hT2R71, sequence (P59536 whole entry): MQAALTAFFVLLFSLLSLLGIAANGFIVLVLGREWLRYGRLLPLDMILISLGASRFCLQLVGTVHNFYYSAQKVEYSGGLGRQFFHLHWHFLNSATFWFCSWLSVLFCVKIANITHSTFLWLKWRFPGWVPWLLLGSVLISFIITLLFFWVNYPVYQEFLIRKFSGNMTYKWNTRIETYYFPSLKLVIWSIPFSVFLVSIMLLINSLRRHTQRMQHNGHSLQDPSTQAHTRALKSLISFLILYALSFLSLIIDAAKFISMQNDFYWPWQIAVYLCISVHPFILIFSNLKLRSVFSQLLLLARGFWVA
Method in brief: (§3)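 Compound C tested for reduction of receptor activity evoked by EC80-level bitter agonists, receptor by receptor. Assay cells: HEK293 line stably carrying promiscuous G protein G16g44, transiently transfected with individual human T2Rs.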

hT2R14 [1] = molecular target: T1, hT2R14 (Homo sapiens (Human), UniProt Q9NYV8); experiment: hT2R panel inhibition, transient HEK293 G16g44, agonist Aristolochic Acid 2 μM; type: cell-based; conditions: HEK293, compound at 25 μM
T1 sequence (Q9NYV8 whole entry): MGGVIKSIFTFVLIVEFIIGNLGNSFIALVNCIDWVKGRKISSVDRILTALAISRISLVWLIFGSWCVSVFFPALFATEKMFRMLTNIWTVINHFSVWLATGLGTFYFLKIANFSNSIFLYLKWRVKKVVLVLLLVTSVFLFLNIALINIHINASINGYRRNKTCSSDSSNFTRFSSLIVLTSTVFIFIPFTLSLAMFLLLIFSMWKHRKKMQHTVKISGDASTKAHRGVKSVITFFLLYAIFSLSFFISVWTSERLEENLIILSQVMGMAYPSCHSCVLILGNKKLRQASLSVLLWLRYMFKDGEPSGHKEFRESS
Method in brief: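 Agonist challenge was at EC80, with 0.5 mM andrographolide on hT2R8 and 2 μM aristolochic acid on hT2R14. Inhibition was measured in functional assays in HEK293 cells that stably carry the promiscuous G protein G16g44 and were transiently transfected with the individual receptor.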

hT2R61 = hT2R61 (Homo sapiens (Human), UniProt P59537); experiment: hT2R panel inhibition, transient HEK293 G16g44, agonist Aristolochic Acid 25 nM; type: cell-based; conditions: HEK293, compound at 25 μM
hT2R61, sequence (P59537 whole entry): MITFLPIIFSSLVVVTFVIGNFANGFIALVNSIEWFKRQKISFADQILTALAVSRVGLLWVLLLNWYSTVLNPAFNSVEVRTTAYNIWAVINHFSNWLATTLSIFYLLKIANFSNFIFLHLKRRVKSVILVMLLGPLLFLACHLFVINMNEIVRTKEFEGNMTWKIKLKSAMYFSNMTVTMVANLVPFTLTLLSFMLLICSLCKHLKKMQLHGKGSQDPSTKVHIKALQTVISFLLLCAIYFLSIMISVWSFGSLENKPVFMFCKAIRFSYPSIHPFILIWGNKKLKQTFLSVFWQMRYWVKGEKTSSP
Method in brief: as §3

hT2R3 = hT2R3 (Homo sapiens (Human), UniProt Q9NYW6); experiment: hT2R panel inhibition, transient HEK293 G16g44, agonist Chloroquine pH6.5 50 μM; type: cell-based; conditions: HEK293, compound at 25 μM
hT2R3, sequence (Q9NYW6 whole entry): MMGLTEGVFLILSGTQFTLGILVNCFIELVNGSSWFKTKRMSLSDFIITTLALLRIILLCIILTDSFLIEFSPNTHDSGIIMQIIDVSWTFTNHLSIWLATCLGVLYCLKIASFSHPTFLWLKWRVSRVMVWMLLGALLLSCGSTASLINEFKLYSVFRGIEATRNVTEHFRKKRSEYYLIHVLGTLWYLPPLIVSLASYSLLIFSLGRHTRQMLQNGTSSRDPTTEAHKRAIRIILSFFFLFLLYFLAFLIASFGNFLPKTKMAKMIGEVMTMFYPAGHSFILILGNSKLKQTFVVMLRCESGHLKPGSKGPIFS
Method in brief: as §3

hT2R55 = experiment: hT2R panel inhibition, transient HEK293 G16g44, agonist Cinchonine 150 μM; type: cell-based, human; conditions: compound at 25 μM; for screening result against bitter receptor 55: receptor activated to EC80 with the corresponding agonist
Method in brief: as §3

hT2R64 = hT2R64 (Homo sapiens (Human), UniProt P59538); experiment: hT2R panel inhibition, transient HEK293 G16g44, agonist Aristolochic Acid 1 μM; type: cell-based; conditions: HEK293, compound at 25 μM
hT2R64, sequence (P59538 whole entry): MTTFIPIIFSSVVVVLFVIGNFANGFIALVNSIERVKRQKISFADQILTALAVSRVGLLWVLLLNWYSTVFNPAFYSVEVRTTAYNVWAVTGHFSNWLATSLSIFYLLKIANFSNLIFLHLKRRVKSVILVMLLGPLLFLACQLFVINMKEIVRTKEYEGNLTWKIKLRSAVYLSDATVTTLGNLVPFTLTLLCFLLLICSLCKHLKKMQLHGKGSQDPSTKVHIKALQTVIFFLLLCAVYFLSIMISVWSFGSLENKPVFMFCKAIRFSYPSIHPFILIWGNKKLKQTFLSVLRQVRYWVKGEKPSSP
Method in brief: as §3

hT2R63 = experiment: hT2R panel inhibition, transient HEK293 G16g44, agonist Caffeine 1 mM or Andrographolide 100 μM; type: cell-based, human; conditions: compound at 25 μM; for screening result against bitter receptor 63: receptor activated to EC80 with the corresponding agonist
Method in brief: as §3

hT2R7 = hT2R7 (Homo sapiens (Human), UniProt Q9NYW3); experiment: hT2R panel inhibition, transient HEK293 G16g44, agonist Chloroquine pH6.5 10 mM; type: cell-based; conditions: HEK293, compound at 25 μM
hT2R7, sequence (Q9NYW3 whole entry): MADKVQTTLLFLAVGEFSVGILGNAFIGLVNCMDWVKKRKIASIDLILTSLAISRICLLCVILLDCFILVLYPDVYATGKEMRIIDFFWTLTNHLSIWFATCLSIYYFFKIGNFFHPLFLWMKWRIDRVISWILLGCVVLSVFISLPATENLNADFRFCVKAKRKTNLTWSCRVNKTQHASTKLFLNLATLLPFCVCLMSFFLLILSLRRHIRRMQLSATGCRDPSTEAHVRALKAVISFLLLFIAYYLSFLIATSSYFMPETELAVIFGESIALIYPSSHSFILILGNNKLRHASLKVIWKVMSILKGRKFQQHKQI
Method in brief: as §3

hT2R16 = hT2R16 (Homo sapiens (Human), UniProt Q9NYV7); experiment: hT2R panel inhibition, transient HEK293 G16g44, agonist Salicin 1 mM; type: cell-based; conditions: HEK293, compound at 25 μM
hT2R16, sequence (Q9NYV7 whole entry): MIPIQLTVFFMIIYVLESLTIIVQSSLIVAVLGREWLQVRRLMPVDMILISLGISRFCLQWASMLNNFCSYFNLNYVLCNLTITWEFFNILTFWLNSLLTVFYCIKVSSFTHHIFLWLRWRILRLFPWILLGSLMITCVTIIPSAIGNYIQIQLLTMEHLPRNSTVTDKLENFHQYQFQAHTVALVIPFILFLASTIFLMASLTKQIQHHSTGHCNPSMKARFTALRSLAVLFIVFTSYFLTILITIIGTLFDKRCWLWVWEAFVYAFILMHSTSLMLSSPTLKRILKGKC
Method in brief: as §3

hT2R75 = hT2R75 (Homo sapiens (Human), UniProt P59540); experiment: hT2R panel inhibition, transient HEK293 G16g44, agonist Strychnine 1 μM; type: cell-based; conditions: HEK293, read-out: screening result against bitter receptor 75, compound at 25 μM; receptor activated to EC80 with the corresponding agonist
hT2R75, sequence (P59540 whole entry): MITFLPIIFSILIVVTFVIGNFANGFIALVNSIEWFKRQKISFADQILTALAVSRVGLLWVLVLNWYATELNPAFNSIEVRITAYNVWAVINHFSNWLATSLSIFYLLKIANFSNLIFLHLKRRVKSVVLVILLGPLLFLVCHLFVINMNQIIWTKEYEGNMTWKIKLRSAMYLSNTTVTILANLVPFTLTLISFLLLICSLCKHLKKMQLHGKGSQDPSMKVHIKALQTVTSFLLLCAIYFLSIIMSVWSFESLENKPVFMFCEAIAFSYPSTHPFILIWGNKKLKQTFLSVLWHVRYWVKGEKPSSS
Procedure: as §1, §2

hT2R14 [2] = molecular target: T1, hT2R14; experiment: hT2R14 antagonist high-throughput FLIPR assay, stable cell line with G16g44, agonist aristolochic acid; type: cell-based
Method in brief: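 Compounds were co-applied with 3 μM aristolochic acid, a dose set to reach 70-80% of maximal hT2R14 activation. Read-out was FLIPR fluorescence in a stable HEK293 line co-expressing hT2R14 and G16g44.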

hT2R44 = experiment: hT2R panel inhibition, transient HEK293 G16g44, agonist Denatonium 0.5 μM; type: cell-based, human; conditions: compound at 25 μM; for screening result against bitter receptor 44: receptor activated to EC80 with the corresponding agonist
Method in brief: as §3

hT2R65 = experiment: hT2R panel inhibition, transient HEK293 G16g44, agonist Oleuropein 1 mM; type: cell-based, human; conditions: compound at 25 μM; for screening result against bitter receptor 65: receptor activated to EC80 with the corresponding agonist
Method in brief: as §3

hT2R54 = experiment: hT2R panel inhibition, transient HEK293 G16g44, agonist Ranitidine 5 mM; type: cell-based, human; conditions: compound at 25 μM
Method in brief: as §3

hT2R67 = experiment: hT2R panel inhibition, transient HEK293 G16g44, agonist Andrographolide 5 μM; type: cell-based, human; conditions: compound at 25 μM
Method in brief: as §3

hT2R5 = hT2R5 (Homo sapiens (Human), UniProt Q9NYW4); experiment: hT2R panel inhibition, transient HEK293 G16g44, agonist Picoline 10 mM; type: cell-based; conditions: HEK293, compound at 25 μM
hT2R5, sequence (Q9NYW4 whole entry): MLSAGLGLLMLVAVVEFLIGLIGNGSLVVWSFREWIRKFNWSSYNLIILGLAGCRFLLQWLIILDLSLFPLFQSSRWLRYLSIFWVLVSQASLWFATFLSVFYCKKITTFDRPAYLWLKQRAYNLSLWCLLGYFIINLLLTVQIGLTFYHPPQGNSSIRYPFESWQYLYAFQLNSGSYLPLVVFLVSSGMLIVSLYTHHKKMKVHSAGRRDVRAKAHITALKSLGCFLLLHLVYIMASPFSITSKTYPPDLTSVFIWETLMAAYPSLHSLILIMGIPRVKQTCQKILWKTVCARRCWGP
Method in brief: as §3

hT2R51 = hT2R51 (Homo sapiens (Human), UniProt P59533); experiment: hT2R panel inhibition, transient HEK293 G16g44, agonist Prop 2.5 μM; type: cell-based; conditions: HEK293, compound at 25 μM; receptor activated to EC80 with agonist; read-out: inhibition of bitter receptor 51
hT2R51, sequence (P59533 whole entry): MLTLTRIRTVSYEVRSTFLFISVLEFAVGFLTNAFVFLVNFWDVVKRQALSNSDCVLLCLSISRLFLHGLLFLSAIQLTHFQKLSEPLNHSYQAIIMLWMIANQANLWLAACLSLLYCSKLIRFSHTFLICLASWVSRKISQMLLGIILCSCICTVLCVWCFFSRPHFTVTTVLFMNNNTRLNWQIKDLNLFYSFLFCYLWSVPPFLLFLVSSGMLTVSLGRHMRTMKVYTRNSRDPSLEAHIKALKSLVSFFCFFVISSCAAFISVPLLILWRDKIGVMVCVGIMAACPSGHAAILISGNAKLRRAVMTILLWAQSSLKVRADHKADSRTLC
Method in brief: as §3

[3] = receptor activated to EC80 with the corresponding agonist, class symbols, read-out: screening result against bitter receptor 4
[4] = HEK293, read-out: screening result against bitter receptor 10, compound at 25 μM, receptor activated to EC80 with the corresponding agonist
[5] = receptor activated to EC80 with the corresponding agonist, read-out: screening result against bitter receptor 71
[6] = receptor activated to EC80 with the corresponding agonist, read-out: screening result against bitter receptor 14
[7] = receptor activated to EC80 with the corresponding agonist, read-out: screening result against bitter receptor 61
[8] = receptor activated to EC80 with the corresponding agonist, read-out: screening result against bitter receptor 3
[9] = receptor activated to EC80 with the corresponding agonist, read-out: screening result against bitter receptor 64
[10] = receptor activated to EC80 with the corresponding agonist, read-out: screening result against bitter receptor 7
[11] = receptor activated to EC80 with the corresponding agonist, read-out: screening result against bitter receptor 16
[12] = receptor activated to EC80 with the corresponding agonist
[13] = receptor activated to EC80 with agonist

Compound	inhibition at 25 µM (hT2R4; [3]) [%]	inhibition at 25 µM (hT2R10; [4]) [%]	inhibition at 25 µM (hT2R71; [5]) [%]	inhibition at 25 µM (hT2R14 [1]; [6]) [%]	inhibition at 25 µM (hT2R61; [7]) [%]	inhibition at 25 µM (hT2R3; [8]) [%]	screening result against bitter receptor 55 (hT2R55)	inhibition at 25 µM (hT2R64; [9]) [%]	screening result against bitter receptor 63 (hT2R63)	inhibition at 25 µM (hT2R7; [10]) [%]	inhibition at 25 µM (hT2R16; [11]) [%]	inhibition at 25 µM (hT2R75) [%]	screening result against bitter receptor 44 (hT2R44)	screening result against bitter receptor 65 (hT2R65)	IC50 (hT2R14 [2]; Table C, read-out: hT2R14 IC50) [µM]	also measured
O=C(O)C1CCC(CN(Cc2ccc(F)cc2)S(=O)(=O)c2ccccc2)CC1 (stereo not shown) [Example 5-22, 4-((N-(4-fluorobenzyl)phenylsulfonamido)methyl)-cyclohexanecarboxylic acid]	40 to 60	20 to 40	40 to 60	> 80	> 80	40 to 60	+++ (60% to 80% inhibition = +++)	40 to 60	+++ (60% to 80% inhibition = +++)	20 to 40	20 to 40	20 to 40	++ (40% to 60% inhibition = ++)			IC50 (hT2R14 [2]; read-out: IC50 on hT2R14 bitter receptor): 0.24 µM
O=C(O)C1CCC(CN(Cc2ccc(F)cc2)S(=O)(=O)c2cccs2)CC1 (stereo not shown) [Example 5-51, 4-((N-(4-fluorobenzyl)thiophene-2-sulfonamido)methyl)cyclohexanecarboxylic acid]	20 to 40	20 to 40	40 to 60	> 80	> 80	40 to 60	+++ (60% to 80% inhibition = +++)	40 to 60	+++ (60% to 80% inhibition = +++)	20 to 40	20 to 40	20 to 40	++ (40% to 60% inhibition = ++)	+ (20% to 40% inhibition = +)	0.342	
O=C(O)c1ccc(CN(Cc2ccc(F)cc2)S(=O)(=O)c2ccccc2)cc1 [Example 5-105, 4-((N-(4-fluorobenzyl)phenylsulfonamido)methyl)-benzoic acid]	20 to 40	20 to 40	60 to 80	> 80	> 80	20 to 40	++++ (80% or greater inhibition = ++++)	> 80	++ (40% to 60% inhibition = ++)	20 to 40	40 to 60	20 to 40	++ (40% to 60% inhibition = ++)	+++ (60% to 80% inhibition = +++)	0.935	screening result against bitter receptor 54 (hT2R54; [12]): + (20% to 40% inhibition = +); screening result against bitter receptor 67 (hT2R67; [12]): ++ (40% to 60% inhibition = ++); inhibition at 25 µM (hT2R5; receptor activated to EC80 with the corresponding agonist, read-out: screening result against bitter receptor 5): 20 to 40%
CCOc1ccc(CN(Cc2ccccc2)S(=O)(=O)c2ccc(C(=O)O)cc2)cc1 [Example 5-108, 4-(N-benzyl-N-(4-ethoxybenzyl)sulfamoyl)benzoic acid]																inhibition at 25 µM (hT2R4; receptor activated to EC80 with agonist, read-out: inhibition of bitter receptor 4): 60 to 80%; inhibition at 25 µM (hT2R10; HEK293, read-out: inhibition of bitter receptor 10, compound at 25 μM, receptor activated to EC80 with agonist): 40 to 60%; inhibition at 25 µM (hT2R71; receptor activated to EC80 with agonist, read-out: inhibition of bitter receptor 71): 60 to 80%; inhibition at 25 µM (hT2R14 [1]; receptor activated to EC80 with agonist, read-out: inhibition of bitter receptor 14): > 80%; inhibition of bitter receptor 65 (hT2R65; [13]): ++ (40% to 60% inhibition = ++); inhibition of bitter receptor 54 (hT2R54; [13]): + (20% to 40% inhibition = +); inhibition at 25 µM (hT2R61; receptor activated to EC80 with agonist, read-out: inhibition of bitter receptor 61): > 80%; inhibition at 25 µM (hT2R3; receptor activated to EC80 with agonist, read-out: inhibition of bitter receptor 3): 40 to 60%; inhibition of bitter receptor 55 (hT2R55; [13]): ++++ (80% or greater inhibition = ++++); inhibition at 25 µM (hT2R64; receptor activated to EC80 with agonist, read-out: inhibition of bitter receptor 64): > 80%; inhibition of bitter receptor 63 (hT2R63; [13]): +++ (60% to 80% inhibition = +++); inhibition at 25 µM (hT2R7; receptor activated to EC80 with agonist, read-out: inhibition of bitter receptor 7): 20 to 40%; inhibition at 25 µM (hT2R16; receptor activated to EC80 with agonist, read-out: inhibition of bitter receptor 16): 20 to 40%; inhibition of bitter receptor 67 (hT2R67; [13]): + (20% to 40% inhibition = +); inhibition at 25 µM (hT2R5; receptor activated to EC80 with agonist, read-out: inhibition of bitter receptor 5): 20 to 40%; inhibition of bitter receptor 44 (hT2R44; [13]): +++ (60% to 80% inhibition = +++); inhibition at 25 µM (hT2R51): 40 to 60%
